Data as given in ChEMBL document CHEMBL1201862, “PubChem BioAssay data set” (2004).
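Step 1: Grow cells in 96-well plates. Step 2: Expose to compound for 48 hours at 5 concentrations. Step 3: Interpolate endpoints linearly; if unreached, use highest concentration. GI50 marks 50% less growth.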 Activity calls are given as the source filed them. Rule as the data show it: active = GI50 up to about 1.1 µM and inactive = higher.

Experiments:
Test in all cases: inhibition of tumour cell growth, NCI panel, 48 h
[1] = tested on: 786-0
[2] = tested on: OVCAR-4
[3] = tested on: HOP-92
[4] = tested on: UO-31
[5] = tested on: OVCAR-3
[6] = tested on: SK-MEL-5
[7] = tested on: NCI-H522
[8] = tested on: EKVX
[9] = tested on: TK-10
[10] = tested on: HOP-62
[11] = tested on: COLO 205
[12] = tested on: ACHN
[13] = tested on: NCI-H460
[14] = tested on: LOX IMVI
[15] = tested on: OVCAR-8
[16] = tested on: OVCAR-5
[17] = tested on: RXF 393
[18] = tested on: SK-MEL-2
[19] = tested on: HCC 2998
[20] = tested on: HCT-15

| SMILES | GI50 [1] | GI50 [2] | GI50 [3] | GI50 [4] | GI50 [5] | GI50 [6] | GI50 [7] | GI50 [8] | GI50 [9] | GI50 [10] | GI50 [11] | GI50 [12] | GI50 [13] | GI50 [14] | GI50 [15] | GI50 [16] | GI50 [17] | GI50 [18] | GI50 [19] | GI50 [20] [µM] |
| --- | --- | --- | --- | --- | --- | --- | --- | --- | --- | --- | --- | --- | --- | --- | --- | --- | --- | --- | --- | --- |
| C#C[C@H](CCCC)OC(=O)N[C@H](C)c1ccccc1 | 49.1 µM (inactive) | 42 µM (inactive) | 57.5 µM (inactive) | 26.9 µM (inactive) | 53.3 µM (inactive) | 21.7 µM (inactive) | 29.2 µM (inactive) | 50.6 µM (inactive) | 37.8 µM (inactive) | > 100 µM (inactive) | 21.7 µM (inactive) | 41.9 µM (inactive) | 58.2 µM (inactive) | 33.2 µM (inactive) | 49.3 µM (inactive) | 48 µM (inactive) | 30.9 µM (inactive) | 36.1 µM (inactive) | – | – |
| CC(C)=C[C@@H]1C[C@H](C)[C@H]2CC[C@H](C)[C@H]3C(=O)C(O)=C(C)C(=O)[C@]123 | > 100 µM (inactive) | 90.8 µM (inactive) | 42.7 µM (inactive) | > 100 µM (inactive) | > 100 µM (inactive) | > 100 µM (inactive) | 48.1 µM (inactive) | > 100 µM (inactive) | > 100 µM (inactive) | > 100 µM (inactive) | > 100 µM (inactive) | > 100 µM (inactive) | > 100 µM (inactive) | > 100 µM (inactive) | > 100 µM (inactive) | > 100 µM (inactive) | – | – | > 100 µM (inactive) | > 100 |
| NC(=O)c1oc([N+](=O)[O-])c(-c2ccccc2)c1-c1ccccc1 | 25.1 µM (inactive) | 12.2 µM (inactive) | 16.1 µM (inactive) | 16.3 µM (inactive) | 1.24 µM (inactive) | 0.597 µM (active) | 12.6 µM (inactive) | 17.6 µM (inactive) | 28.6 µM (inactive) | 25.8 µM (inactive) | 16.8 µM (inactive) | 26.2 µM (inactive) | 26.2 µM (inactive) | 14.1 µM (inactive) | 24.8 µM (inactive) | 26.1 µM (inactive) | 31.6 µM (inactive) | 15.6 µM (inactive) | – | 15.5 |
| Nc1nc(Cl)cc(NCC2(CO)CCC(OCc3ccccc3)C2)n1 (configuration not stated) | 35.2 µM (inactive) | 12.1 µM (inactive) | 3.57 µM (inactive) | 11.3 µM (inactive) | 30.5 µM (inactive) | 2.82 µM (inactive) | 1.31 µM (inactive) | 10.2 µM (inactive) | 11.2 µM (inactive) | 25.4 µM (inactive) | 21.1 µM (inactive) | 5.69 µM (inactive) | 19.3 µM (inactive) | 2.83 µM (inactive) | 22.1 µM (inactive) | 37.7 µM (inactive) | 27 µM (inactive) | 21.3 µM (inactive) | – | 15 |
| CN[C@@H](C)[C@@H](NC)c1ccccc1 | > 100 µM (inactive) | – | > 100 µM (inactive) | > 100 µM (inactive) | > 100 µM (inactive) | > 100 µM (inactive) | > 100 µM (inactive) | > 100 µM (inactive) | > 100 µM (inactive) | – | > 100 µM (inactive) | > 100 µM (inactive) | > 100 µM (inactive) | > 100 µM (inactive) | > 100 µM (inactive) | – | > 100 µM (inactive) | – | > 100 µM (inactive) | > 100 |
| C=C(C)COc1ccc2c(c1)CCC1C2CCC2(C)C(=O)/C(=N/O)CC12 (configuration not stated) | 2.86 µM (inactive) | 2.39 µM (inactive) | 2.3 µM (inactive) | 3.9 µM (inactive) | 3.43 µM (inactive) | 8.11 µM (inactive) | 3.58 µM (inactive) | 2.59 µM (inactive) | 1.35 µM (inactive) | 5.43 µM (inactive) | 3.21 µM (inactive) | 3.12 µM (inactive) | 1.57 µM (inactive) | 3.08 µM (inactive) | 6.92 µM (inactive) | 3.93 µM (inactive) | 1.19 µM (inactive) | 4.14 µM (inactive) | – | 2.41 |
| COc1ccc(-c2oc3cc(-c4cc5oc(-c6ccc(OC)cc6)c(-c6ccc(OC)cc6)c5cc4OC)c(OC)cc3c2-c2ccc(OC)cc2)cc1 | > 100 µM (inactive) | > 100 µM (inactive) | > 100 µM (inactive) | > 100 µM (inactive) | > 100 µM (inactive) | > 100 µM (inactive) | > 100 µM (inactive) | > 100 µM (inactive) | > 100 µM (inactive) | > 100 µM (inactive) | > 100 µM (inactive) | > 100 µM (inactive) | > 100 µM (inactive) | > 100 µM (inactive) | > 100 µM (inactive) | > 100 µM (inactive) | > 100 µM (inactive) | – | > 100 µM (inactive) | > 100 |
| O=S(=O)(N/C(=N\O)Nc1ccc(Cl)cc1)c1cc2ccccc2s1 | 18.4 µM (inactive) | 14.4 µM (inactive) | 18.3 µM (inactive) | 33.9 µM (inactive) | 15 µM (inactive) | 16.3 µM (inactive) | 13.8 µM (inactive) | 12.9 µM (inactive) | 19.4 µM (inactive) | 17.7 µM (inactive) | 15.2 µM (inactive) | 16.4 µM (inactive) | 31.8 µM (inactive) | 17.5 µM (inactive) | 16.8 µM (inactive) | 15.2 µM (inactive) | 15.1 µM (inactive) | 15.8 µM (inactive) | – | 18 |
